According to paper PMC3361238, “The Effects of Addition of Mononucleotides on Sma nuc Endonuclease Activity” (The Scientific World Journal, 2012):

Key:
[1] = target: T1, Sma nuc endonuclease (isoform Sm2) (Serratia marcescens, UniProt P13717); test: hyperchromic RNA hydrolysis assay at […] nm; secondary double reciprocal plot of Lineweaver-Burk segments; assay type: biochemical
T1 construct: gene nucA; Sm2 known as the full 245-residue mature form (signal peptide removed)
T1 sequence (P13717 22-266): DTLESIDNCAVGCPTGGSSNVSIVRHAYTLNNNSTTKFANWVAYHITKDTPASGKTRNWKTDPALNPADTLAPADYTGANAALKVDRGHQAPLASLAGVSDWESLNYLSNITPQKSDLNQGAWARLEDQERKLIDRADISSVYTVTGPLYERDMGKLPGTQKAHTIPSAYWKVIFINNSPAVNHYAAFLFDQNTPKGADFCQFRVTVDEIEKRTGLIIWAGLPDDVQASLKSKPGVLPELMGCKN

[2] = target: T1, Sma nuc endonuclease (isoform Sm2); test: hyperchromic RNA hydrolysis assay at […] nm; Cornish-Bowden plot S/V against [I]; assay type: biochemical; conditions: RNA substrate 0.03-0.18 mM, 50 mM Tris-HCl pH 8.5, MgSO4 1.2-7.2 mM, 37 °C; uncompetitive

| Structure (SMILES) | Ki [1] [µM] | Ki [2] [µM] |
| --- | --- | --- |
| Nc1ncnc2c1ncn2[C@@H]1O[C@H](COP(=O)(O)O)[C@@H](O)[C@H]1O [AMP] | 76.5 | – |
| Nc1ccn([C@@H]2O[C@H](COP(=O)(O)O)[C@@H](O)[C@H]2O)c(=O)n1 [CMP] | – | 86.2 |
| Nc1nc2c(ncn2[C@@H]2O[C@H](COP(=O)(O)O)[C@@H](O)[C@H]2O)c(=O)[nH]1 [GMP] | – | 229 |
| O=c1ccn([C@@H]2O[C@H](COP(=O)(O)O)[C@@H](O)[C@H]2O)c(=O)[nH]1 [UMP] | – | 310.7 |
| Nc1ncnc2c1ncn2[C@H]1C[C@H](O)[C@@H](COP(=O)(O)O)O1 [dAMP] | 60 | – |
